Molecules are shown by their SMILES. Structures can show the parent of a compound that is named as a salt.

The melting point is the temperature of the solid-liquid transition.

Compound `Cc1ccc(-c2ccc3c(c2)CN(C)CCC3c2ccc(C#N)c(F)c2)nn1` (single isomer, unassigned; (+)) (as salt: tartrate) [Example 92 (+), (+)-2-fluoro-4-(2-methyl-8-(6-methylpyridazin-3-yl)-2,3,4,5-tetrahydro-1H-benzo[c]azepin-5-yl)benzonitrile] had a melting point of 112 to 115 °C. Take `CN1CCC(c2ccccc2)c2ccc(C#N)cc2C1` (stereo not shown) (as salt: maleate): the melting point is 67 to 69 °C. As for `COc1ccc2c(c1)CNCCC2c1ccccc1` (racemic) (as salt: maleate) [Example 53, (+/−)-8-methoxy-5-phenyl-2,3,4,5-tetrahydro-1H-benzo[c]azepine], the figure is 154 to 156 °C; as for `Cc1ccc(-c2ccc3c(c2)CN(C)CCC3c2cccc(F)c2)nn1` (single isomer, unassigned; (-)) (as salt: citrate) [Example 84 (−), (−)-5-(3-fluorophenyl)-2-methyl-8-(6-methylpyridazin-3-yl)-2,3,4,5-tetrahydro-1H-benzo[c]azepine], 107 to 110 °C; as for `CN1CCC(c2ccc3sccc3c2)c2ccc(-c3cnccn3)cc2C1.O=C(O)/C=C\C(=O)O` (single isomer, unassigned; (+)) [Example 105, (+)-5-(benzo[b]thiophen-5-yl)-2-methyl-8-(pyrazin-2-yl)-2,3,4,5-tetrahydro-1H-benzo[c]azepine, maleate salt], 102 to 108 °C. Then `Cc1ccc(-c2ccc3c(c2)CN(C)CCC3c2ccccc2)nn1` (single isomer, unassigned; (+)) (as salt: hydrochloride) [Example 24, (+)-2-methyl-8-(6-methyl-pyridazin-3-yl)-5-phenyl-2,3,4,5-tetrahydro-1H-benzo[c]azepine], with 168 to 170 °C.

With `COc1ccc(C2CCN(C)Cc3cc(OC)ccc32)cc1` (single isomer, unassigned; (-)) (as salt: hydrochloride) [Example 6 (−), (−)-5-(4-methoxyphenyl)-8-methoxy-2-methyl-2,3,4,5-tetrahydro-1H-benzo[c]azepine], the melting point fell in the range of 193 to 194 °C. As for `CN1CCC(c2ccc3sccc3c2)c2ccc(-c3cccnn3)cc2C1.O=C(O)/C=C\C(=O)O` (single isomer, unassigned; (+)) [Example 107, (+)-5-(benzo[b]thiophen-5-yl)-2-methyl-8-(pyridazin-3-yl)-2,3,4,5-tetrahydro-1H-benzo[c]azepine, maleate salt], the figure is 117 to 121 °C. As for `COc1ccc2c(c1)CN(C)CCC2c1ccc(F)cc1` (racemic) (as salt: hydrochloride) [Example 3, (+/−)-5-(4-fluorophenyl)-8-methoxy-2-methyl-2,3,4,5-tetrahydro-1H-benzo[c]azepine], the melting point fell in the range of 149 to 150 °C.

`COc1ccc(C2CCN(C)Cc3cc(OC)ccc32)cc1` (racemic) (as salt: hydrochloride) [Example 5, (+/−)-5-(4-methoxyphenyl)-8-methoxy-2-methyl-2,3,4,5-tetrahydro-1H-benzo[c]azepine] registered a melting point of 165 to 166 °C.

These data come from patent publication US9403776B2, “Aryl- and heteroaryl-substituted tetrahydrobenzazepines and use thereof to block reuptake of norepinephrine, dopamine, and serotonin” (Albany Molecular Research, Inc., priority 2005, dated 2016).
